These results are taken from paper PMC10096175, “An In Vitro Antimicrobial, Anticancer and Antioxidant Activity of N–[(2–Arylmethylthio)phenylsulfonyl]cinnamamide Derivatives” (Molecules, 2023).

Each structure is given as a SMILES string. In brackets after ≈: the same amount, converted by molar mass. Where two headings read alike, the source gives them in different places.

Data set [1] deals with SKOV-3 cells. The data set is described as follows: MTT assay. The class given is cell-based, human. Particulars: for IC50: Homo sapiens.
The subject of data set [2] is E. faecalis ATCC 51299. Nature of the data set: MIC determination, reference strain (microdilution). The class given is cell-based. Particulars: Enterococcus faecalis, ATCC51299. (Dilution methods test growth across graded concentrations, often in twofold steps.)
Data set [3] is described as follows: in vitro. The settings on record: sheep, pH 7.
The test system of data set [4] is S. epidermidis ATCC 14990. The data set is described as follows: MIC determination, reference strain (microdilution). Format: cell-based. The settings on record: Staphylococcus epidermidis, ATCC14990.
For data set [5], the system named is HeLa cells. Nature of the data set: MTT assay. The settings on record: for IC50: Homo sapiens, HeLa, 24 h. Format: cell-based, human. For orientation: Tetrazolium dyes change colour on reduction, which living cells bring about.
Data set [6] concerns S. aureus ATCC 6538. Nature of the data set: Blood bacteriostatic activity test in sheep blood. The class given is cell-based, Staphylococcus aureus. The settings on record: 24 h, 37 °C, t0 1.30 × 10^8, control t24 2.28 × 10^9. The procedure: (§1) The manifestation of the bactericidal properties of chemical compounds is low minimum bactericidal concentration (MBC) values, which allows many groups of researchers to check the killing rate over time (time killing tests). It is an important element in determining the strength and speed of action of a compound on bacteria. Such studies are usually carried out in bacterial media, without additional factors influencing the results.
(§2) This step was carried out on two types of bacteria, S. aureus ATCC 6538 (Figure 8 and Table 2) and S. epidermidis ATCC 14 990 (Figure 9 and Table 3).
(§3) The number of bacteria at the initial time (t0) was 1.30 × 10^8 CFU/mL for S. aureus and 1.70 × 10^7 CFU/mL for S. epidermidis. Live bacterial cells were assayed after 24 h of incubation at 37 °C. […] Bacterial controls without compounds grew unhindered and after 24 h (t24) were 2.28 × 10^9 for S. aureus and 5.10 × 10^8 CFU/mL for S. epidermidis. […] It can be assumed that the tested compounds were not related to any fraction of the blood. Attention should be paid to the S. epidermidis tests and the difference between the number of bacteria at t0 and after 24 h of incubation for each compound. The number of bacteria at t0 was 1.70 × 10^7 CFU/mL and after 24 h it decreased to, e.g., 9.40 × 10^6 CFU/mL for compounds 16e and 7.80 × 10^6 CFU/mL for compound 17c. It can be assumed that the tested compounds after being added to blood samples prevented bacteria from multiplying. However, under these conditions, the phagocytic cells take up the bacteria. […] This can be explained by much greater variety of mechanisms of action of S. aureus against phagocytic cells than of S. epidermidis. This can be integrated with the bacterial cell compounds, e.g., protein A, as well as enzymes that bacteria can secrete outside the cell, e.g., coagulase and staphylokinase. Additional studies should be conducted to check how the tested compounds affect the enzymes secreted by S. aureus.
(§4) The assay was performed as previously described by with a modification. Pure sheep blood was used for the research. Two strains of bacteria S. aureus ATCC 6538 and S. epidermidis ATCC 14990 were used with an inoculum density of approximately 10^8 CFU/mL at 0 time. The final concentration of the compounds was 0.5, 1, 2, 4, and 8 µg/mL, and the final volume of the assay tube was 1 mL. Bacterial survivors were determined on MH agar plates (CFU/mL) at 24 h after exposure.

Data set [7] deals with B. subtilis ATCC 6633. The data set is described as follows: MIC determination, reference strain (microdilution). Particulars: Bacillus subtilis, ATCC6633. Format: cell-based.
The subject of data set [8] is S. aureus ATCC 6538. Described as above. Particulars: Staphylococcus aureus, ATCC6538. The class given is cell-based.
The test system of data set [9] is HEK-293 cells. Nature of the data set: MTT assay, noncancerous cells. The class given is cell-based. The settings on record: Homo sapiens.
Data set [10] can be described thus: ABTS assay. Particulars: ABTS radical scavenging; 10 min, 30 °C. Here is the method: The ABTS assay was performed spectrophotometrically. […] ABTS solution with methanol/DMSO (9/1 v/v) was used as a control. After 10 min of incubation at 30 °C in the dark, the absorbance was analyzed at λ = 750 nm by a 96-well microplate reader (Epoch, BioTek System, Santa Clara, CA, USA). Ascorbic acid was used as a standard.
ABTS inhibition was calculated by the following equation:ABTS Inhibition (%) = [Acontrol − Asample)/Acontrol] × 100%
(§5) IC50 values of the samples were calculated using program GraFit v. 7.0 (Erithacus Software). The analysis was performed three times, with tree replications in each (n = 9). Statistical analysis was performed with one-way ANOVA with Tuckey’s post-hoc test.

Data set [11] deals with E. coli ATCC 8739. Nature of the data set: MIC determination, reference strain (microdilution). The class given is cell-based. The settings on record: Escherichia coli, ATCC8739.
Data set [12] concerns C. albicans ATCC 10231. The data set is described as follows: MIC determination, reference fungal strain (microdilution). The class given is cell-based. Particulars: Candida albicans, ATCC10231.
Data set [13] has as its system C. diphtheriae. The data set is described as follows: MIC determination, reference strain (microdilution). The class given is cell-based. Particulars: Corynebacterium diphtheriae.
Data set [14] in a line: DPPH assay. Particulars: DPPH radical scavenging; 40 min, room temperature. The procedure:
The DPPH assay was performed spectrophotometrically. The amount of 30 µL of different concentrations of samples, dissolved in methanol/DMSO (9/1 v/v), was mixed with 170 µL of 0.06 mM DPPH methanolic solution and completed with methanol to a final volume of 300 µL. DPPH methanolic solution with methanol/DMSO (9/1 v/v) was used as a control. After 40 min of incubation at room temperature in the dark, the absorbance was analyzed at λ = 510 nm by a 96-well microplate reader (Epoch, BioTek System, Santa Clara, CA, USA). Ascorbic acid was used as a standard.
DPPH inhibition was calculated by the following equation:DPPH Inhibition (%) = [Acontrol − Asample)/Acontrol] × 100%
as §5
Background: DPPH is a stable violet radical that fades when it is reduced.

For data set [15], the system named is E. hirae ATCC 10541. The data set is described as follows: MIC determination, reference strain (microdilution). The class given is cell-based. Particulars: Enterococcus hirae, ATCC10541.
Data set [16] has as its system S. epidermidis ATCC 14990. The data set is described as follows: Blood bacteriostatic activity test in sheep blood. The class given is cell-based, Staphylococcus epidermidis. Particulars: 24 h, 37 °C, t0 1.70 × 10^7, control t24 5.10 × 10^8. Here is the method:
as §1, §2, §3, §4

In data set [17] the test system is MCF-7 cells. The data set is described as follows: MTT assay. Format: cell-based, human. The settings on record: for IC50: Homo sapiens.
In data set [18] the test system is cancer cells (HeLa, SKOV-3, MCF-7). Nature of the data set: MTT assay, summary statements on the cancer cells. Format: cell-based. The settings on record: Homo sapiens, cell line not specified, MTT.

In the case of `Cc1cc(S(=O)(=O)NC(=O)C=Cc2ccccc2)c(SCc2cccc3ccccc23)cc1Cl` [Compound 16a, N–[4–Chloro–5–methyl–2–(naphthalen–1–ylmethylthio)benzenesulfonyl]cinnamamide], the IC50 was determined as 11.8 ± 0.8 µg/mL (≈ 23.3 µM) in data set [1] (SK-OV-3, 24 h); 13.7 ± 1.12 µg/mL (≈ 27 µM) in data set [5]; 13.6 ± 0.19 µg/mL (≈ 26.7 µM) in data set [9] (HEK293, 24 h); 14.3 ± 0.28 µg/mL (≈ 28.2 µM) in data set [17] (MCF7, 24 h). Also, the minimum inhibitory concentration (MIC) is 2 ± 0.58 µg/mL (≈ 3.94 µM) in [2]; 2 ± 0.58 µg/mL (≈ 3.94 µM) in data set [4]; 62.5 ± 0.29 µg/mL (≈ 123 µM) in [7]; 1 ± 0.29 µg/mL (≈ 1.97 µM) in [8]; greater than 125 µg/mL in [11]; greater than 125 µg/mL in data set [12]. Further, the MIC in data set [13] is 62.5 ± 0.29 µg/mL (≈ 123 µM); in data set [15], 4 ± 0.15 µg/mL (≈ 7.87 µM). The compound further returned a hemolysis at 24 h, 125 µg/mL in data set [3] of 43%. The “Number of viable cells of Staphylococcus aureus” value in [6] (1 µg/mL) is 1.23 × 10^8 CFU/mL; in data set [6] (2 µg/mL) it was 7.50 × 10^8 CFU/mL; in [6] (4 µg/mL), 8.10 × 10^8 CFU/mL; in data set [6] (8 µg/mL), 1.29 × 10^8 CFU/mL. In addition, the “IC50 ABTS” value in data set [10] is 717.99 ± 1.01 µg/mL (≈ 1410 µM). Besides, the “IC50 DPPH” value in [14] is on record as 1048.33 ± 0.48 µg/mL (≈ 2060 µM). The “Number of viable cells of Staphylococcus epidermidis” value is 3.00 × 10^6 CFU/mL in data set [16] (1 µg/mL), 4.00 × 10^6 CFU/mL in [16] (2 µg/mL), 1.10 × 10^6 CFU/mL in data set [16] (4 µg/mL) and 2.50 × 10^6 CFU/mL in data set [16] (8 µg/mL).
With `Cc1cc(S(=O)(=O)NC(=O)/C=C/c2ccc([N+](=O)[O-])cc2)c(SCc2cccc3ccccc23)cc1Cl` [Compound 16f, (E)–N–{4–Chloro–5–methyl–2–[(naphthalen–1–yl)methylthio]phenylsulfonyl}–3–(4–nitrophenyl)acrylamide], the IC50 in data set [1] (SK-OV-3, SKOV-3, MTT, 24 h treatment, read-out: IC50) was 70.53 ± 0.21 µg/mL (≈ 128 µM); in data set [5] (MTT, 24 h treatment, read-out: IC50), 62.8 ± 3.75 µg/mL (≈ 114 µM); in [9] (HEK293, HEK-293, MTT, 24 h treatment, read-out: IC50), 94.5 ± 4.7 µg/mL (≈ 171 µM); in data set [18] it was greater than 60 µg/mL; in data set [17] (MCF7, MCF-7, MTT, 24 h treatment, read-out: IC50), 93.5 ± 4.71 µg/mL (≈ 169 µM). Moreover, the “Selectivity index (SI)” value worked out at 1.3 in data set [1] (IC50 HEK-293 / IC50 SKOV-3), 1.5 in [5] (IC50 HEK-293 / IC50 HeLa) and 1.0 in data set [17] (IC50 HEK-293 / IC50 MCF-7). The MIC in [2] (E. faecalis ATCC 51299, Co-trimoxazole as sulfamethoxazole/trimethoprim, read-out: MIC) was 4 ± 0.15 µg/mL (≈ 7.23 µM); in data set [4] (S. epidermidis ATCC 14990, Co-trimoxazole as sulfamethoxazole/trimethoprim, read-out: MIC), 2 ± 0.58 µg/mL (≈ 3.62 µM); in data set [7] (B. subtilis ATCC 6633, Co-trimoxazole as sulfamethoxazole/trimethoprim, read-out: MIC), 62.5 ± 0.29 µg/mL (≈ 113 µM); in data set [8] (S. aureus ATCC 6538, ± SD, Co-trimoxazole as sulfamethoxazole/trimethoprim, read-out: MIC) it was 1 ± 0.29 µg/mL (≈ 1.81 µM); in [11] (E. coli ATCC 8739, Co-trimoxazole as sulfamethoxazole/trimethoprim, read-out: MIC) it was greater than 125 µg/mL; in [12] (C. albicans ATCC 10231, read-out: MIC) it was greater than 125 µg/mL. For the same compound, the MIC worked out at 62.5 ± 0.29 µg/mL (≈ 113 µM) in data set [13] (C. diphtheriae, Co-trimoxazole as sulfamethoxazole/trimethoprim, read-out: MIC) and 4 ± 0.15 µg/mL (≈ 7.23 µM) in [15] (E. hirae ATCC 10541, Co-trimoxazole as sulfamethoxazole/trimethoprim, read-out: MIC). Also, the hemolysis at 24 h, 31.25 µg/mL in [3] (defibrinated sheep blood diluted 1:9 v/v with PBS) was 12 to 20%. Besides, the “IC50 ABTS” value in [10] was 597.53 ± 1.3 µg/mL (≈ 1080 µM). Also, in data set [14], the “IC50 DPPH” value is 310.50 ± 0.73 µg/mL (≈ 561 µM).

The term IC50 denotes the concentration that gives 50% inhibition. What is called MIC is the lowest concentration found to suppress growth.
